Laboratory results published in patent publication US20050100510A1, “Methods for using gadolinium as a contrast media” (priority 2003, published 2005).
Entries after “also recorded” stand apart in the source; their conditions may differ. Where two headings read alike, the source gives them in different places. Blank lines part the entries; values can stand above or below the compound they belong to.

Legend:
[1] = intravenous administration; cited from earlier work
[2] = First set of test cases: gadolinium lumbar discography with fluoroscopy and CT; type: in vivo, human; conditions: for visibility of contrast on computer axial tomography: approximately one-hundred-and-sixty minutes after injection, case 1-1
Method: A first set of test cases was conducted wherein it was identified that gadolinium would adequately opacify, thereby allowing adequate fluoroscopic imaging for of soft tissue portions of the spinal area and, for example, for lumbar discography procedures. […] During the first set of test cases, a solution of 469.01 mg/ml gadolinium (Magnevist—Berlex Laboratories, Wayne, N.J.) with 25 mg/ml Cefazolin (Apothecon, Princeton, N.J.) for antibacterial prophylaxis was injected into each disc using a standard three milliliter syringe. The following is a brief synopsis of six tests from the first set of tests:
The volume of contrast injected at pain onset, the end point (nucleography), the pain intensity measured with the numerical analog scale, and the concordant and/or discordant pain response were recorded for each spinal disc to be injected with gadolinium. Each spinal disc then was visualized with c-arm fluoroscopy to create a visualization of the nucleogram and provocation of the spinal discs.

[3] = Second set of test cases: fluoroscopically guided spinal injections with gadolinium; type: in vivo, human
Method: During the second of set of tests, gadolinium was injected into a variety of target portions of the spinal area to create a contrast between the target portion and surrounding tissue. As described below, these contrasts were adequately sensed using fluoroscopy to create visual representations of the contrast between the target portion and the surrounding tissue. The second set of tests utilized a preferred embodiment of the method of using gadolinium as a contrast substance, where a visualization was created to use as a guide for the accurate injection of a diagnostic or therapeutic substance into the target portion of the spinal area. In this respect, visualization of the contrast helps to localize placement of a needle for an injection of a substance avoiding the harm that the injection might cause to surrounding tissue.
The second set of tests comprised chart review, performance of spinal injections with gadolinium under fluoroscopic guidance, and post procedure follow-up by phone at two and twelve weeks to assess any adverse reactions to the gadolinium. […] The tests utilized a contrast substance that was 469.01 mg/ml gadolinium (Magnevist—from Berlex Laboratories, Wayne, N.J.). […]

[4] = Third set of cases: spinal interventional procedures with fluoroscopic guidance, adverse reactions; type: in vivo, human
From the text: In a third set of cases, two-hundred-and-thirty patients underwent spinal interventional procedures with fluoroscopic guidance. Two-hundred-and-eleven patients were subsequently evaluated for any adverse reaction in the period immediately after the procedure and up to several weeks after the procedure. Seventy-four of the patients were male and one-hundred-and-thirty-seven were female. The age range of the patient population varied from sixteen years old to eighty-one year old, and the average age of the patient population was 48.7 years old. The only prophylactic medications that were administered before the procedure were antibiotics for patients undergoing discography, patients with significant cardiac disease, or patients with surgical implants. The number and type of procedures along with the number of adverse reactions for each procedure type are summarized in below in Table 1: […]

[5] = cited from earlier work
[6] = repeated exposure in sensitive individuals

complications during or after the procedure ([2]; intradiscal, 469.01 mg/ml gadolinium with 25 mg/ml Cefazolin, single patient cases): No complications
Structure (SMILES): CNC[C@H](O)[C@@H](O)[C@H](O)[C@H](O)CO.CNC[C@H](O)[C@@H](O)[C@H](O)[C@H](O)CO.O=C([O-])CN(CCN(CC(=O)[O-])CC(=O)O)CCN(CC(=O)[O-])CC(=O)O.[Gd+3] [gadolinium, gadopentate dimeglumine]
adverse reaction rate [1]: 0.06%
visibility in disc material on fluoroscopic image ([2]; after injection into spinal discs): fluoroscopically visible; also recorded: clearly visible
visibility of contrast on computer axial tomography ([2]; L3-L4 spinal disc): visible
visibility of contrast on computer axial tomography ([2]; L4-L5 disrupted spinal disc): less intensive, but still visible
visibility on CT scan ([2]; more than one-hundred-and-twenty minutes after injection, discs with and without annular disruption): still visible
visibility on computer axial tomography ([2]; thirty minutes after completion of the procedure, case 1-2): showed gadolinium in each disc
side effects, complications or adverse reactions ([3]; 469.01 mg/ml gadolinium (Magnevist), follow-up at two and twelve weeks): no side effects or complications; also recorded: None of the individuals in the case series of the present invention had any adverse reactions
visibility under fluoroscopy ([3]; soft tissue of the spinal area): visible under fluoroscopy
Number of Adverse Reactions ([4]; Caudal epidural, 16 procedures): 0
Number of Adverse Reactions ([4]; Cervical SNRB, 14 procedures): 1
Number of Adverse Reactions ([4]; Cervical interlaminar, 6 procedures): 1
Number of Adverse Reactions ([4]; Lumbar SNRB, 55 procedures): 4
Number of Adverse Reactions ([4]; Lumbar discography, 11 procedures): 0
Number of Adverse Reactions ([4]; Lumbar epidurolysis, 4 procedures): 0
Number of Adverse Reactions ([4]; Lumbar interlaminar, 37 procedures): 1
Number of Adverse Reactions ([4]; Lumbar intraarticular facet, 3 procedures): 0
Number of Adverse Reactions ([4]; Lumbar sympathetic, 4 procedures): 0
Number of Adverse Reactions ([4]; Other miscellaneous, 13 procedures): 1
Number of Adverse Reactions ([4]; Sacroiliac joint, 59 procedures): 2
quality of visualizations from gadolinium-induced contrasts ([4]; all procedures, fluoroscopic devices): adequate visualizations
serious adverse reactions ([4]; of the five allergic-type reactions, likely due to contributing factors): one
adverse reactions attributable to allergic-type reactions ([4]; out of the ten adverse reactions): five

Structure (SMILES): CC(=O)N(CC(O)CO)c1c(I)c(C(=O)NCC(O)CO)c(I)c(C(=O)NCC(O)CO)c1I (stereo not drawn) [iohexol]
anaphylaxis occurrence ([5]; first dose administrations): one percent and two percent
anaphylaxis occurrence [5, 6]: seventeen percent and thirty-five percent

Structure (SMILES): C[C@H](O)C(=O)Nc1c(I)c(C(=O)NC(CO)CO)c(I)c(C(=O)NC(CO)CO)c1I [iopamidol]
anaphylaxis occurrence ([5]; first dose administrations): one percent and two percent
anaphylaxis occurrence [5, 6]: seventeen percent and thirty-five percent
